# Like-named read-outs stand apart in the source and are kept apart here.
# What was measured:
# [1] = system: ED; conditions: cited from earlier work
# [2] = system: penis or female genitalia; experiment: Topical or transdermal administration of magnesium sulfate or forskolin to male and female subjects
# Excerpt: The composition is generally applied generously to the penis and massaged thoroughly. In females, the composition may be applied to the female genitals and massaged. In various embodiments, the composition may also be applied on a penis or sex toy or suppository inserted into the vagina or ano-rectal region, or as a condom lubricant, penile lubricant, vaginal lubricant or anal lubricant.
# [3] = cited from earlier work
# [4] = system: female low libido; conditions: cited from earlier work; for side effects: in vivo
structure (smiles),measurement,setting,value
"O=[N+]([O-])OCC(CO[N+](=O)[O-])O[N+](=O)[O-] [glyceryl trinitrate (GTN), glyceryl trinitrate]",efficacy in ED and side effects,[1]; patches applied to the penis,effective but produces side effects in both patient and partner
CN1CCc2cccc3c2[C@H]1Cc1ccc(O)c(O)c1-3 [apomorphine],efficacy in ED,[1]; oral and sublingual therapies,neither compound has demonstrated efficacy across a broad range of subjects
Cc1ccc(N(CC2=NCCN2)c2cccc(O)c2)cc1 [phentolamine],efficacy in ED,[1]; oral and sublingual therapies,neither compound has demonstrated efficacy across a broad range of subjects
"C=C[C@@]1(C)CC(=O)[C@]2(O)[C@@]3(C)[C@@H](O)CCC(C)(C)[C@@H]3[C@H](O)[C@H](OC(C)=O)[C@@]2(C)O1 [forskolin, 7beta-acetoxy-8, 13-epoxy-1a, 6β, 9a-trihydroxy-labd-14-en-11-one]",systemic side effects or drug interactions,"[2]; human, in vivo",no systemic side effects or drug interactions
same,lipid solubility,[3],lipid-soluble
same,solubility in water,[3]; water,water soluble
O=c1[nH]c2ccccc2n1CCN1CCN(c2cccc(C(F)(F)F)c2)CC1 [flibanserin],side effects,[4],sleepiness and fainting
same,effect compared to placebo,[4]; oral pill taken daily,minimal compared to placebo
CCCC[C@H](NC(C)=O)C(=O)N[C@H]1CC(=O)NCCCC[C@@H](C(=O)O)NC(=O)[C@H](Cc2c[nH]c3ccccc23)NC(=O)[C@H](CCCN=C(N)N)NC(=O)[C@@H](Cc2ccccc2)NC(=O)[C@H](Cc2cnc[nH]2)NC1=O [Bremelanotide],side effects,[4],Nausea is a common side effect
same,effect on number of satisfying sexual events compared to placebo,[4]; self-administered injection about 45 minutes before a sexual encounter,minimal effect
O=S(=O)([O-])[O-].[Mg+2] [magnesium sulfate],systemic side effects or drug interactions,[2]; administered topically or by transdermal delivery,no systemic side effects or drug interactions
same,taste of magnesium in mouth after topical administration (increased blood levels),[2]; topical administration,tasted magnesium in their mouth within one minute
same,testosterone and libido,"[2]; topical or transdermal administration, males and females",increased testosterone with increased libido in both males and females lasting for several weeks
same,"increase in penile length, size and turgidity versus control gel (KY jelly)",[2]; topical or transdermal application to the penis,significantly exceeds that obtained by topical or transdermal application of a control gel
CCCCC[C@H](O)/C=C/[C@H]1[C@H](O)CC(=O)[C@@H]1CCCCCCC(=O)O [alprostadil],efficacy in ED,[1]; intraurethral deposition,not effective in all patients

# Reference: US20240335371A1, “MAGNESIUM SULFATE AND FORSKOLIN FOR TREATMENT OF SEXUAL DISORDERS AND BENIGN PROSTATIC HYPERPLASIA” (State-of-the-Art Technologies, Inc., priority 2023, published 2024)
